Test results published in patent publication US7214663B2, “Tripeptide prodrug compounds” (Medarex, Inc., priority 2001, dated 2007).
Non-standard residues stand in square brackets, D forms with d. Residues, ends and D or L forms follow the SMILES beside them. *: point of attachment. Daunorubicin = COc1cccc2c1C(=O)c1c(O)c3c(c(O)c1C2=O)C[C@@](O)(C(C)=O)C[C@@H]3O[C@H]1C[C@H](N*)[C@H](O)[C@H](C)O1; Sta = CC(C)C[C@H](N)[C@@H](O)CC(=O)O; pGlu = O=C1CC[C@@H](C(=O)O)N1; Isovaleryl = CC(C)CC(=O)*

Tests used:
[1] = test system: carcinoma cell trouase; assay: Inhibitor profile of carcinoma cell trouase; type: biochemical, human
[2] = Metabolism and clearance of Suc-Leu-Ala-Leu-Dox in mice (plasma, urine); type: in vivo, mouse
Protocol: Plasma samples of 100 μl were transferred to microcentrifuge tubes (1.5 mL) and an internal standard of daunorubicin (20 μL at 0.5 mg/ml) was added together with acetonitrile (400 μl). The tubes were capped and briefly vortexed followed by centrifugation at 14,000 rpm. 420 μl from each tube was removed and dried in vacuo. Each sample was reconstituted in 65 μl 20 mM aqueous ammonium formate (AF) pH 4.5 buffer containing acetonitrile (20%) prior to analysis by reverse phase liquid chromatography in combination with tandem mass spectrometry (LC MS/MS).
Urine was collected at 2 and 24 hours post administration from pairs of mice in metabolic cages. Urine samples were diluted with AF buffer containing acetonitrile (20%) to give a target analyte concentration within the practical range of the LC MS/MS assay. 30 μl of each diluted sample was placed in a micro centrifuge tube (1.5 ml) and an internal standard of daunorubicin (20 μL at 0.5 mg/ml) was added together with 50 μl of AF buffer containing acetonitrile (20%). Each sample was then analyzed by LC MS/MS.
An Agilent HP1100 HPLC with DAD detector and Chemstation software was coupled to a PE Sciex API 365 mass spectrometer with an electrospray ion source. HPLC was performed on a TSK-Gel Super ODS, […], 4.6×50 mm (TosoHaas) reversed phase column equipped with a […] C18 guard disc (Higgins Analytical) and stainless steel frit (Upchurch Scientific). Chromatography was performed at room temperature. The flow rate was 0.5 ml/min. Injection volume was 50 μl. Gradient elution was performed using a mobile phase of AF buffer with increasing amounts of acetonitrile. The API 365 was operated at 365° C. in a multiple reaction monitoring mode, set to monitor specific analyte parent-daughter ion pairs. Integration of chromatograms was performed by MacQuan software (PE Sciex) and quantitation of each analyte obtained by comparison to previously obtained calibration curves. Daunorubicin was used as an internal standard in all cases.

[3] = Metabolism and clearance of Suc-Met-Ala-Leu-Dox in mice (plasma, urine); type: in vivo, mouse
Protocol: Plasma samples were obtained at 1 or 4 hours, and urine was collected at 2 and 24 hours post administration. Levels of the prodrug and metabolites were measured by LC-MS with UV detection of doxorubicin.

[4] = test system: HeLa cell anion exchange fraction (F1), trouase; assay: Relative cleavage by HeLa cell anion exchange fraction (F1) versus Suc-βAla-Leu-Ala-Leu standard; type: biochemical, human; settings: 2 hr at 37° C., 12.5 μg/mL, HeLa F1; relative to Suc-βAla-Leu-Ala-Leu-(Dox or Dnr) standard
Protocol: Thirty billion commercially produced HeLa Cells (human cervical carcinoma, Computer Cell Culture Ceizter, Seneffe, Belgium) were homogenized with a sonicator and with a Dounce homogenizer in 108 mL of aqueous lysis solution. The lysis solution contained 0.02% w/v Triton X-100, 0.04% w/v sodium azide, and a cocktail of protease inhibitors (2 tablets/50 mL Complete™, EDTA-free tablets, Roche Molecular Biochemicals). The cell homogenate was centrifuged 30 minutes at 4° C. at 5000×g and the pellet was homogenized in a second 108 mL of lysis solution using a Dounce homogenizer and centrifuged as before. The supernatants were combined and centrifuged for 90 min at 145,000×g at 4° C.
A portion of the ultracentrifugation supernatant was diluted 2-fold with a 20 mM triethanolamine-HCl pH 7.2 buffer containing 0.01% (w/v) Triton X-100 and 0.02% (w/v) sodium azide (equilibration buffer). Thirty mL of the resulting solution, corresponding to approximately 180 mg of protein, was loaded at 4° C. on a 2.6×9.4 cm Source™ 15Q (Amersham Pharmacia Biotech) low pressure anion exchange chromatography column (1 ml/minute). The column was then washed with 250 ml of the equilibration buffer at a flow rate of 1 mL/minute. Proteins were eluted in a NaCl linear concentration gradient (0–0.5 M in the equilibration buffer, total volume of the gradient was 1000 ml) at a flow rate of 3 ml/minute. Two-minute fractions were collected and used for enzyme activity determination using βAla-Leu-Ala-Leu-Dox as the substrate. Its transformation into Ala-Leu-Dox was quantified by reverse phase high performance liquid chromatography utilizing fluorescence detection of the anthracycline moiety. The fractions containing the highest activity levels were pooled (fractions #43–46; ˜0.13 M NaCl), supplemented with protease inhibitors (Complete™, EDTA-free tablets, Roche Molecular Biochemicals), and stored as aliquots at −80° C.
Test compounds were incubated for 2 hr at 37° C. at a concentration of 12.5 μg/mL with HeLa cell anion exchange fraction (F1), as prepared in Example 1(c). Following incubation, three volumes of acetonitrile were added to stop the reaction and remove protein from the mixture. The sample was centrifuged at 18,000 g for 5 minutes and 100 μL of supernatant was mixed with 300 μL of water prior to analysis by HPLC. For HPLC analysis 50 μL of sample was injected on a 4.6×50 mm 2μ TSK Super-ODS chromatography column at 40° C. and eluted with a 3 minute linear gradient from 26% to 68% acetonitrile in aqueous 20 mM ammonium acetate pH 4.5 buffer at 2 mL/min. Detection was by fluorescence using an excitation wavelength of 235 nm and an emission wavelength of 560 nm.
the amount of cleavage of each test compound was compared to the amount of a standard Suc-βAla-Leu-Ala-Leu-therapeutic agent conjugate cleaved by F1 under the same conditions. The therapeutic agent in the standard (Dox or Dnr) was the same as in the test compound. Table 3 provides the relative cleavage rates of several tripeptide prodrugs.

[5] = in vivo; settings: female, ICR, mouse, iv, 100 umol/kg
Protocol: Plasma was obtained from three individual animals in each group at 5 minutes, 1, 2, 4, or 6 hr.

[6] = after single intravenous 117 mg/kg Suc-Leu-Ala-Leu-Dox
[7] = after single intravenous 120 mg/kg Suc-Met-Ala-Leu-Dox

Molecule | inhibition of carcinoma cell trouase [1] | Relative Cleavage % [4] [%] | other results
c1cnc2c(c1)ccc1cccnc12 [1,10-phenanthroline] | inhibited | – | –
COc1cccc2c1C(=O)c1c(O)c3c(c(O)c1C2=O)C[C@@](O)(C(=O)CO)C[C@@H]3O[C@H]1C[C@H](NC(=O)[C@H](CC(C)C)NC(=O)[C@H](C)N)[C@H](O)[C@H](C)O1 [Ala-Leu-Dox] | – | – | Plasma 1 hr, percent of administered dose ([2]; mouse, in vivo, iv, 117 mg/kg): 0.006%; Plasma 4 hr, percent of administered dose ([2]; mouse, in vivo, iv, 117 mg/kg): 0.000%; Urine 2 hr, percent of administered dose ([2]; mouse, in vivo, iv, 117 mg/kg): 0.02%; Urine 24 hr, percent of administered dose ([2]; mouse, in vivo, iv, 117 mg/kg): 0.01%; Plasma 1 hr, percent of administered dose ([3]; mouse, in vivo, iv, 120 mg/kg): 0.002%; Plasma 4 hr, percent of administered dose ([3]; mouse, in vivo, iv, 120 mg/kg): 0.000%; Urine 2 hr, percent of administered dose ([3]; mouse, in vivo, iv, 120 mg/kg): 0.16%; Urine 24 hr, percent of administered dose ([3]; mouse, in vivo, iv, 120 mg/kg): 0.02%
CCCNC(=O)[C@H]1O[C@@H]1C(=O)N[C@H](C(=O)N1CCC[C@H]1C(=O)O)[C@@H](C)CC [CA074] | not | – | –
CC(C)C[C@H](NC(=O)[C@H]1O[C@@H]1C(=O)O)C(=O)NCCCCN=C(N)N [Compound E64, E64] | not | – | –
COc1cccc2c1C(=O)c1c(O)c3c(c(O)c1C2=O)C[C@@](O)(C(=O)CO)C[C@@H]3O[C@H]1C[C@H](NC(=O)[C@@H](N)CC(C)C)[C@H](O)[C@H](C)O1 [Leu-Dox] | – | – | Plasma 1 hr, percent of administered dose [2, 6]: 0.019%; Plasma 4 hr, percent of administered dose [2, 6]: 0.001%; Urine 2 hr, percent of administered dose [2, 6]: 1.53%; Urine 24 hr, percent of administered dose [2, 6]: 0.45%; Plasma 1 hr, percent of administered dose [3, 7]: 0.022%; Plasma 4 hr, percent of administered dose [3, 7]: 0.001%; Urine 2 hr, percent of administered dose [3, 7]: 7.28%; Urine 24 hr, percent of administered dose [3, 7]: 1.25%; plasma level, times higher than Ala-Leu-Dox ([3]; at both 1 and 4 hours after 120 mg/kg Suc-Met-Ala-Leu-Dox): about 10 times
COc1cccc2c1C(=O)c1c(O)c3c(c(O)c1C2=O)C[C@@](O)(C(C)=O)C[C@@H]3O[C@H]1C[C@H](NC(=O)[C@H](CC(C)C)NC(=O)[C@H](C)NC(=O)[C@H](CC(C)C)NC(=O)[C@@H]2CCC(=O)N2)[C@H](O)[C@H](C)O1 [Pyg-Leu-Ala-Leu-Dnr] ([pGlu]LAL-Daunorubicin) | – | 76 | –
COc1cccc2c1C(=O)c1c(O)c3c(c(O)c1C2=O)C[C@@](O)(C(C)=O)C[C@@H]3O[C@H]1C[C@H](NC(=O)[C@H](CC(C)C)NC(=O)[C@H](C)NC(=O)[C@H](CC(C)C)NC(=O)CCC(=O)O)[C@H](O)[C@H](C)O1 [Suc-Leu-Ala-Leu-Dnr] | – | 76 | –
COc1cccc2c1C(=O)c1c(O)c3c(c(O)c1C2=O)CC(O)(C(C)=O)CC3OC1CC(NC(=O)C(CC(C)C)NC(=O)C(C)NC(=O)C(CCSC)NC(=O)CCC(=O)O)C(O)C(C)O1 (stereo not drawn) [Suc-Met-Ala-Leu-Dnr] | – | 69 | –
CCC(C)C(NC(=O)CNC(=O)C(CCSC)NC(=O)CCC(=O)O)C(=O)NC1CC(OC2CC(O)(C(C)=O)Cc3c(O)c4c(c(O)c32)C(=O)c2c(OC)cccc2C4=O)OC(C)C1O (stereo not drawn) [Suc-Met-Gly-Ile-Dnr] | – | 46 | –
COc1cccc2c1C(=O)c1c(O)c3c(c(O)c1C2=O)CC(O)(C(C)=O)CC3OC1CC(NC(=O)C(CC(C)C)NC(=O)CNC(=O)C(CCSC)NC(=O)CCC(=O)O)C(O)C(C)O1 (stereo not drawn) [Suc-Met-Gly-Leu-Dnr] | – | 55 | –
COc1cccc2c1C(=O)c1c(O)c3c(c(O)c1C2=O)C[C@@](O)(C(C)=O)C[C@@H]3O[C@H]1C[C@H](NC(=O)[C@H](Cc2ccccc2)NC(=O)CNC(=O)[C@H](CCSC)NC(=O)CCC(=O)O)[C@H](O)[C@H](C)O1 [Suc-Met-Gly-Phe-Dnr] | – | 29 | –
CCCCC(NC(=O)CCC(=O)O)C(=O)NCC(=O)NC(Cc1ccccc1)C(=O)NC1CC(OC2CC(O)(C(C)=O)Cc3c(O)c4c(c(O)c32)C(=O)c2c(OC)cccc2C4=O)OC(C)C1O (stereo not drawn) [Suc-Nle-Gly-Phe-Dnr] | – | 17 | –
CCC(C)C(NC(=O)CNC(=O)C(Cc1ccccc1)NC(=O)CCC(=O)O)C(=O)NC1CC(OC2CC(O)(C(C)=O)Cc3c(O)c4c(c(O)c32)C(=O)c2c(OC)cccc2C4=O)OC(C)C1O (stereo not drawn) [Suc-Phe-Gly-Ile-Dnr] | – | 54 | –
COc1cccc2c1C(=O)c1c(O)c3c(c(O)c1C2=O)CC(O)(C(C)=O)CC3OC1CC(NC(=O)C(CC(C)C)NC(=O)CNC(=O)C(Cc2ccccc2)NC(=O)CCC(=O)O)C(O)C(C)O1 (stereo not drawn) [Suc-Phe-Gly-Leu-Dnr] | – | 24 | –
COc1cccc2c1C(=O)c1c(O)c3c(c(O)c1C2=O)CC(O)(C(C)=O)CC3OC1CC(NC(=O)C(Cc2ccccc2)NC(=O)CNC(=O)C(Cc2ccccc2)NC(=O)CCC(=O)O)C(O)C(C)O1 (stereo not drawn) [Suc-Phe-Gly-Phe-Dnr] | – | 12 | –
CCC(C)C(NC(=O)C(C)NC(=O)C(Cc1ccc(O)cc1)NC(=O)CCC(=O)O)C(=O)NC1CC(OC2CC(O)(C(C)=O)Cc3c(O)c4c(c(O)c32)C(=O)c2c(OC)cccc2C4=O)OC(C)C1O (stereo not drawn) [Suc-Tyr-Ala-Ile-Dnr] | – | 25 | –
COc1cccc2c1C(=O)c1c(O)c3c(c(O)c1C2=O)CC(O)(C(C)=O)CC3OC1CC(NC(=O)C(CC(C)C)NC(=O)C(C)NC(=O)C(Cc2ccc(O)cc2)NC(=O)CCC(=O)O)C(O)C(C)O1 (stereo not drawn) [Suc-Tyr-Ala-Len-Dnr] | – | 77 | –
CC[C@H](C)[C@H](NC(=O)CCNC(=O)CCC(=O)O)C(=O)N[C@@H](C)C(=O)N[C@@H](CC(C)C)C(=O)N[C@H]1C[C@H](O[C@H]2C[C@](O)(C(=O)CO)Cc3c(O)c4c(c(O)c32)C(=O)c2c(OC)cccc2C4=O)O[C@@H](C)[C@H]1O [Suc-βAla-Ile-Ala-Leu-Dox] | – | – | AUC [5]: 326 µM·h
[Zn+2] [Zn^2+] | – | – | inhibition of hydrolysis of Suc-βAla-Leu-Ala-Leu-Dox by HeLa cell Fraction 1 ([1]; 100 μM): completely inhibits
CO[C@@H]1[C@H](OC(=O)/C=C/C=C/C=C/C=C/C(=O)O)CC[C@]2(CO2)[C@H]1[C@@]1(C)O[C@@H]1CC=C(C)C [fumagillin] | not | – | –
CC(=O)N[C@@H](CC(C)C)C(=O)N[C@@H](CC(C)C)C(=O)N[C@H](C=O)CCCNC(=N)N [leupeptin] | not | – | –
CC(C)CC(=O)N[C@H](C(=O)N[C@H](C(=O)N[C@@H](CC(C)C)[C@@H](O)CC(=O)N[C@@H](C)C(=O)N[C@@H](CC(C)C)[C@@H](O)CC(=O)O)C(C)C)C(C)C [pepstatin] (Isovaleryl-VV[Sta]A[Sta]-OH) | not | – | –
aminoethylbenzene-sufonate | not | – | –
aprotinin | not | – | –
